According to patent US20200129476A1, “PARP Inhibitor in Combination with a Glucocorticoid and/or Ascorbic Acid and/or a Protein Growth Factor for the Treatment of Impaired Wound Healing” (AKRIBES BIOMEDICAL GMBH, priority 2017, published 2020):
“Also recorded” adds a separate entry of the source.

Assays:
[1] = tested on: primary human dermal fibroblasts (HDF); assay: Primary human dermal fibroblast (HDF) proliferation assay (2D), with or without wound exudate; assay type: cell-based; conditions: for HDF proliferation, PARP inhibitor alone: talazoparib 1 μM
Description: (§1) Primary human dermal fibroblasts (HDF) were purchased from CELLnTEC, Bern. They were routinely grown in Dulbecco's modified Eagle's medium (DMEM) containing 10% FCS, 2 mM glutamine, and 100 U/ml penicillin/100 μg/ml streptomycin. Media, antibiotics, and glutamine were bought from Lonza. The cells were used at passage 5-15. Cells were trypsinized and seeded at 5000 cells/well in 200 μl into the inner wells of 96-well plates. The outer wells were loaded with sterile water. The cells were allowed to adhere overnight and then incubated for 72 hours at 37° C. under the following conditions: graded compound concentrations or 20 ng/ml PDGF-BB (Tonbo Biosciences) in the absence or presence of different dilutions of sterile-filtered WE in medium. For control samples, 200p1 medium was added instead of specific stimuli. Alternatively, the cells were seeded into 384-well plates at 2500 cells/well directly together with test compounds or growth factors and WE or medium in a total volume of […].
At the end of the 72-hour incubation period, supernatants were removed for the determination of IL-1ß, and the cells were fixed with 4% paraformaldehyde (Morphisto) for 15 minutes at room temperature and washed 3 times with PBS. A control plate was fixed after the overnight adherence of the cells (day 1) to determine the starting cell number.
Total cellular protein was determined as a measure of cell number by staining the fixed cells with sulforhodamine B (SRB, Sigma). A 0.4% SRB solution in 1% acetic acid was added to the wells for 30 minutes. The wells were then washed with 1 acetic acid until the wash solution remained colorless. After drying, the dye was eluted with 10 mM Tris.HCl, pH8.5, and absorbance was measured either at 550 or 492 nm for lower and higher cell densities, respectively. The average absorbance of the sample representing the day 1 starting cell number (for 96-well plates) was subtracted from the absorbance values of the WE-treated cells.
All experiments were carried out in triplicate for each sample and concentration, and means±standard deviation (SD) were used for the evaluation of the experiment. Results are expressed as percentage of control values for unstimulated cells.
Low molecular weight compounds (see list in Table 1) were dissolved in DMSO (Bioreagent for cell culture, Sigma) at 10 mM or 100 mM and diluted at least 1:1000 in medium for cellular assays (final DMSO concentration ≤0.1%).
Cells were incubated with compounds for 72 hours in proliferation assays and up to 8 days for FDM assay (refreshed after 4 days). When compounds were tested for their effect on WE stimulation, the incubation of cells with compounds was started and ended simultaneously with WE-incubation.

[2] = tested on: alpha-smooth muscle actin (α-SMA); assay: Immunolocalization of alpha-smooth muscle actin in 2D fibroblast culture (myofibroblast differentiation); assay type: cell-based, human
Description: as §1, with “The cells were allowed to adhere overnight and then incubated for 72 hours at 37° C. under the following conditions: graded compound concentrations or 20 ng/ml PDGF-BB (Tonbo Biosciences) in the absence or presence of different dilutions of sterile-filtered WE in medium.” left out
After fixation with paraformaldehyde, the cells were incubated for 1 hour at room temperature with a monoclonal mouse-anti-human antibody against alpha-smooth muscle actin (α-SMA) from e-Bioscience, washed 3 times with PBS and developed with an Alexa Fluor-labelled donkey-anti-mouse IgG (Molecular Probes). The cells were washed 3 times with PBS and examined in a Zeiss ZEISS Observer.Z1 microscope, using the software AxioVision 48.

## C[C@]1(c2nc3c(C(N)=O)cccc3[nH]2)CCCN1 [veliparib, 2-((2R)-2-methylpyrrolidin-2-yl)-1H-benzimidazole-4-carboxamide]
[1]; FIG. 22, WE #43 and #78 used with veliparib
  cell proliferation under wound exudate-induced inhibition: enhanced cell proliferation
[1]; PARP inhibitor dose series + PDGF 20 ng/ml, WE #78 (FIG. 18)
  HDF proliferation, PARP inhibitor plus PDGF: even further enhanced by the addition of PDGF
[1]; WE from patients #49, #43, #78, #27
  effect on fibroblast proliferation compared across patients: most prominent in the two patients with diabetes
[1]; WE samples #77 and #78 of one patient (day 1 and day 8)
  reproducibility of effect on fibroblast proliferation: reproducible in different samples of the same patient
[1]; presence of WE #43
  fibroblast (HDF) proliferation: strongly beneficial effects
[1]; presence of WE #78 (diabetic patient)
  fibroblast (HDF) proliferation: completely reversed inhibition of wound exudate (WE)-induced fibroblast proliferation; also recorded: dose-dependent increase of HDF proliferation
[1]; presence of WE #78 (diabetic patient), listed as Veliparib
  fibroblast (HDF) proliferation: completely reversed inhibition of wound exudate (WE)-induced fibroblast proliferation; also recorded: strongly beneficial effects
[1]; presence of wound exudate (WE) of patients, several or unspecified WE
  fibroblast (HDF) proliferation: could be confirmed in a number of further wound exudate samples from other patients
[1]; veliparib 10 μM, talazoparib 1 μM + PDGF 20 ng/ml, WE #78 (FIG. 17B)
  HDF proliferation, PARP inhibitor plus PDGF: additively or synergistically enhanced by PDGF
[1]; veliparib 10 μM, WE #78 (FIG. 17B)
  HDF proliferation, PARP inhibitor alone: induce proliferation
[1]; veliparib 10 μM, absence of WE (FIG. 17A)
  HDF proliferation, PARP inhibitor alone: no or an inhibitory effect on fibroblasts on their own
[1]; veliparib 10 μM, absence of WE (FIG. 17A), listed as Veliparib
  HDF proliferation, PARP inhibitor alone: no or even an inhibitory effect on fibroblasts on their own
[2]; absence of WE, TGF-ß 20 ng/ml, veliparib 10 μM
  staining for α-SMA: has no effect; also recorded: had no effect
[2]; presence of WE #78, veliparib 10 μM + TGF-ß 20 ng/ml
  staining for α-SMA, veliparib in combination with TGF-ß: more strongly stained cells than veliparib alone
